Assay results from patent US20200383327A1, “METHOD OF IMPROVING PLANT PERFORMANCE” (The State of Israel, Ministry of Agriculture & Rural …, priority 2018, published 2020).

Columns and labels:
Format in all cases: in vivo
Tetranychus urticae = experiment: Red spider mite damage on tomato plants, natural infestation in greenhouse; details: 4 mM Phe solution, drench or spray, each treatment; AUDPC during 30 days; FIG. 9
Protocol: FIG. 9 is a bar graph showing the effect of 4 mM Phe solution on the severity of Tetranychus urticae red spider mite on leaves of tomato plants. The Phe solution was applied by spraying and by drench on the tomato plants at 3 days before and 4 hours before incubation in the greenhouse. Symptoms severity was evaluated on a scale of 0-100% severity of symptoms coverage during 30 days after treatment and it is expressed as the area under disease progress curve (AUDPC).
The red spider mite Tetranychus urticae Koch, (also two-spotted spider mite) occurred naturally on the treated tomato plants. The plants were kept in a greenhouse with 18-28° C. Typical scratching symptoms severity were evaluated on each plant; 0=no infection (all leaves are symptomless) and 100=leaves were fully covered by symptoms.

Penicillium digitatum = experiment: Postharvest decay of 'Michal' clementine fruit sprayed with conidia; details: 4 mM phenylalanine, FIG. 6
Protocol: FIGS. 6A-6C are graphs and a photograph showing induced resistance of harvested clementine fruit to fungal pathogens. FIG. 6A is a vertical bar showing the % of decayed Clementine fruit (in a box) of the cultivar ‘Michal’ which were dipped for 30 seconds in 4 mM phenylalanine. After the fruits were dried, they were sprayed with conidia suspension of Penicillium digitatum (early infection), or alternatively the fruit was sprayed with conidia suspension two days after being dipped in phenylalanine (late infection). FIG. 6B is representative pictures of inoculated fruits of control and treatment with 4 mM phenylalanine, 5 days post inoculation. FIG. 6C is diagrams of taste evaluation of control fruit (upper panel) and phenylalanine treated fruit (lower panel) which include off-flavors (index 1-5), acidity (index 1-5), sweetness (index 1-5), and general taste (index 1-5).

Botrytis = experiment: Resistance of petunia plants to Botrytis, increasing Phe concentrations
Protocol: The effect of treating petunia plants with increased concentrations of Phe was assessed: plants were either sprayed or drenched with increasing concentration of Phe three days prior to infection with Botrytis and on the day of infection. The infected area was followed for 7-10 days after infection.

Botrytis cinerea = experiment: Tomato gray mold severity on leaves of tomato plants
Protocol: Plants of tomato (Solanum esculentum) and cucumber (Cucumis sativus) were grown from seeds in a nursery and transplanted into 1-liter pots at 40 to 50 days after seeding in an unheated greenhouse. Plants were fertilized proportionally with drippers 2-3 times per day with 5:3:8 NPK fertilizer (irrigation water was planned to have total N, P and K concentrations of 120, 30 and 150 mg/L, respectively; EC 2.2 dS/m), allowing for 25-50% drainage. Plants were maintained at 20 to 30° C. with natural light, and relative humidity of 50-90% in a pest- and disease-free greenhouse during the growth period and then transferred to an area where diseases were allowed to develop following pathogen infection on intact leaves as described below.
Treatments in experiments were replicated 5-10 times. Replicates of each treatment were arranged randomly. Disease severity data in percentages were arcsin-transformed before further analysis. Disease severity data were analyzed using ANOVA and Fisher's protected LSD test. Standard errors (SE) of the means were calculated and disease levels were statistically separated (P≤0.05) following a one-way analysis of variance. A control experiment presents the severity of the disease with application of only water without the Phe.
Gray mold inducing pathogen Botrytis cinerea [Pers.:Fr. [Teleomorph: Botryotinia fuckeliana (de Bary) Whetzel] (isolate BcI16; [Swartzberg D. et al., Eur. J. Plant Pathol., 2008, 120:289-297])] was cultured on potato dextrose agar (PDA, Difco, Detroit, Mich.) in 90 mm diam. petri dishes containing 15 ml PDA each and incubated at 20° C. The inoculum was maintained on PDA and transferred every two weeks. Gray mold conidia were harvested from 10 to 14-day-old cultures by agitating 1 cm^2 of agar bearing mycelium and conidia in a glass tube with tap water. The suspension was then filtered through cheesecloth. The concentration of conidia was determined using a hemocytometer and a light microscope, and adjusted to 5×10^5 conidia/ml. Since B. cinerea conidia need carbon and phosphate for germination and penetration, 0.1% glucose was added to the final conidial suspension together with 0.1% KH2PO4. […] Plant attached tomato leaves were examined. Whole plants were kept in a humidity chamber at 20±1° C., 97±3% RH, and 1,020 lux light intensity. Plants were infected by spraying the whole plant with 2 ml of a 5×10^5 conidia/ml suspension or were infected after wounding with a needle and dropping 10 μL drops of conidia suspension prepared as mentioned above. Disease severity was evaluated on each plant using a pictorial key; 0=no infection (all leaves are symptomless) and 100=all leaves are fully covered by gray mold symptoms.

[1] = Strawberry fruit decay after pre-harvest treatment; details: 1-4 mM solution 3 weeks pre-harvest, FIG. 18
Protocol: FIG. 18 is a graph showing the effect of Phe solution on fruit pre-harvest decay. […] Decay was monitored and documented over a period of 12 days.
Strawberry plants were treated with 1-4 mM solution 3 weeks pre-harvest.

Powdery Mildew = experiment: Powdery mildew incidence per inflorescence in mango orchard sprayed during flowering; details: application during orchard flowering; FIG. 23A
Excerpt: (§1) FIGS. 23A-C: Effect of flowering application on disease incidence. Avocado and Mango cv. ‘Kent’ orchards were sprayed with fungicide (Pyrimethanil+Fludioxonil) or with phenylalanine during flowering. (FIG. 23A). Powdery Mildew incidence (percentage) per inflorescence in mango orchard. (FIG. 23B). Anthracnose incidence (percentage) on harvested mango stored at ambient temperature for 12 days. (FIG. 23CB). Anthracnose incidence (percentage) on harvested avocado stored at ambient temperature for 14 days.
(§2) Flowering is one of the more susceptible organs of the tree. Pathogenic fungi can penetrate during flowering and either infect the flower (e.g., powdery mildew) or endophytically colonize the stem and the fruit without causing any visible symptoms. Those fungi (e.g. Colletotrichum and Lasiodiplodia) become active during abiotic stress or during fruit ripening and cause fruit stem-end rot and anthracnose.

Anthracnose [2] = experiment: Anthracnose incidence on harvested mango after orchard flowering spray; details: application during orchard flowering; stored at ambient temperature for 12 days; FIG. 23B
Excerpt: as §1, §2

Anthracnose [3] = experiment: Anthracnose incidence on harvested avocado after orchard flowering spray; details: application during orchard flowering; stored at ambient temperature for 14 days; FIG. 23
Excerpt: as §1, §2

Structure (SMILES): N[C@@H](Cc1ccccc1)C(=O)O [Phe, Phenylalanine]
- Severity of damage of the Tetranychus urticae red spider mite on tomato leaves (Tetranychus urticae): significantly suppressed
- Decay severity in comparison to the untreated control fruits (Penicillium digitatum): reduced the decay severity
- Protection against Botrytis (Botrytis; 6 mM Phe, sprayed or drenched, petunia, 7-10 days after infection): might not be effective enough
- Plant health and pathogen status (Botrytis; 15 and 35 mM Phe, drenched, petunia): healthy, pathogen free
- Resistance to Botrytis (Botrytis; 35 and 50 mM Phe, sprayed, petunia, FIG. 7): much higher resistance to Botrytis
- Phe concentration at which resistance to Botrytis was apparent (Botrytis; drenching Phe, FIGS. 8A-8B): ≥ 6 mM
- Phe concentration at which resistance to Botrytis was apparent (Botrytis; sprayed Phe, FIGS. 7A-7B): ≥ 6 mM
- Disease control effect on severity of tomato gray mold (Botrytis cinerea; 4 mM vs 2 mM Phe, drench to the root zone, FIG. 14): significantly better disease control effect than 2 mM
- Disease control effect on severity of tomato gray mold (Botrytis cinerea; 4 mM vs 2 mM Phe, sprayed or drenched, wound infection, 1-4 mM series, FIG. 16): significantly better disease control effect than 2 mM
- Disease control effect on severity of tomato gray mold (Botrytis cinerea; 4 mM vs 2 mM Phe, sprayed or drenched, wound infection, 2-4 mM series, FIG. 17): significantly better disease control effect than 2 mM
- Disease control effect on severity of tomato gray mold (Botrytis cinerea; 4 and 8 mM vs 2 mM Phe, sprayed, FIG. 15): significantly better disease control effect than 2 mM
- Amount of rotten fruits (decay incidence) [1]: substantially reduced amount of rotten fruits
- Mango powdery mildew (Powdery Mildew): reduced
- Postharvest anthracnose in mango (Anthracnose [2]): reduced
- Postharvest anthracnose in avocado (Anthracnose [3]): reduced
